Consider 4 compounds from patent publication US10588897B2 (priority 2013, dated 2020).

Where two headings read alike, the source gives them in different places.

The test system of series [1] is E. coli. The conditions noted are these: found by Kimura et al.; cited from earlier work.
In series [2] the test system is Escherichia coli type III secretion. As to conditions: literature; cited from earlier work.
In series [3] the test system is Y. pseudotuberculosis T3SS (YopE secretion). The series is classed as cell-based, Yersinia pseudotuberculosis.
For series [4], the system named is Yersinia pestis type III secretion. The conditions noted are these: cited from earlier work.
Series [5] deals with Y. pseudotuberculosis T3SS. The series is classed as cell-based, Yersinia pseudotuberculosis.
The subject of series [6] is wildtype Y. pseudotuberculosis IP2666. In kind it is cell-based, Yersinia pseudotuberculosis.

As to `C/C=C\C=C\[C@@H]1O[C@](O)([C@H](CC)C(=O)NC/C=C/C=C(\C)[C@@H](OC)[C@@H](C)[C@@H]2O[C@H](/C=C/C=C/C=C(\C)C(=O)c3c(O)ccn(C)c3=O)[C@H](O)[C@@H]2O)[C@H](O)[C@H](O)C1(C)C` [Aurodox], in series [1], the “concentrations cytotoxic to E. coli” value is “above 12.5 μM”. Further, the “in vitro type III secretion by Escherichia coli” value in series [2] is listed as “reduce”. Also, the “inhibition of YopE secretion” value in series [3] (12.5 μM, highest concentration used) was “did not significantly inhibit”.

For `CC(Oc1ccc(Cl)cc1Cl)C(=O)NCc1ccc2c(c1)OCO2` (stereo not drawn) [MBX 1641], the “in vitro type III secretion by Yersinia pestis” value in series [4] is listed as “reduce”.

Turning to `C/C=C(\C)[C@H](O)[C@H](C)/C=C(C)/C=C/C/C(C)=C/Cc1nc(OC)c(OC)c(O)c1C` [Piericidin A1], the YopM-β-lactamase translocation result in series [5] (concentrations of 36 μM and greater) was “significantly diminished”. In addition, the “Y. pseudotuberculosis in vitro growth (OD600 compound-treated/OD600 DMSO-treated)” value in series [6] (143 μM, 23° C., continuous shaking) is given as “do not affect”; in series [6] (143 μM, 37° C., continuous shaking), “do not affect”. In addition, the “Yersinia growth by optical density” value in series [6] (26° C. and 37° C., all tested concentrations up to 143 μM) is “did not inhibit”. In series [3] (71 μM, 2 hours at 37° C., relative to DMSO), the “reduction of secretion of the T3SS effector YopE” value is recorded as 65%.

Consider `C/C=C(\C)[C@H](O)[C@H](C)/C=C(C)/C=C/C/C(C)=C/Cc1nc(OC)cc(O)c1C` [Mer-A 2026B], for which, in series [5], the “YopM translocation into CHO cells” value is listed as “significantly reduced”. In addition, the “T3SS inhibition (YopM translocation into CHO cells)” value in series [5] (71 µM) worked out at 75%. Also, in series [6], the “Y. pseudotuberculosis in vitro growth (OD600 compound-treated/OD600 DMSO-treated)” value is reported as “do not affect” and the “Yersinia growth by optical density” value was “did not inhibit”. Also, in series [3], the “inhibition of YopE secretion at lower concentrations” value is given as “dose dependent decrease in inhibition” and the “reduction of secretion of the T3SS effector YopE” value is recorded as 45%.
